Where two headings read alike, the source gives them in different places. Residues, ends and D or L forms follow the SMILES beside them.
Legend:
GS (sheep brain) = conditions: cited from earlier work
Wistar rats [1] = assay: Forced swimming test in corticosterone-administered rats; type: in vivo
Wistar rats [2] = assay: PTZ-induced seizures; type: in vivo; conditions: rat, in vivo
Wistar rats [3] = assay: Open field task in corticosterone-administered rats; type: in vivo; conditions: day 15, corticosterone 35 mg/kg s.c.; versus PCB and Control
[4] = Adrenal weight in corticosterone-administered rats; type: in vivo, Wistar rats
[5] = test system: glutamate metabotropic receptor; conditions: cited from earlier work
GS (rat liver) = GS (rat liver) (Rattus norvegicus, UniProt P09606); conditions: cited from earlier work
Wistar rat brain GS = target: T1, Wistar rat brain GS (Rattus norvegicus, UniProt P09606); assay: GS activity in Wistar rat brain homogenates; type: biochemical; conditions: in absence of 2β-ME
T1 construct: from tissue; host or cells: Wistar rat brain homogenate or membranes; in A19 also liver and lungs
Description: GS activity was assessed as mentioned above for purified sheep brain GS.

GS [6] = conditions: cited from earlier work
purified sheep brain GS = assay: Purified sheep brain GS activity (Meister's method, gamma-glutamylhydroxamate formation); type: biochemical
GS [7] = target: GS (Rattus norvegicus, UniProt P09606); type: in vivo, Wistar rats; set-up: Wistar rat brain homogenates were incubated with naftazone; from tissue; host or cells: Wistar rat brain homogenate or membranes; in A19 also liver and lungs; conditions: one hour after PTZ 50 mg/kg i.p.
GS (Rattus norvegicus, UniProt P09606), sequence (P09606 2-373 limits assumed): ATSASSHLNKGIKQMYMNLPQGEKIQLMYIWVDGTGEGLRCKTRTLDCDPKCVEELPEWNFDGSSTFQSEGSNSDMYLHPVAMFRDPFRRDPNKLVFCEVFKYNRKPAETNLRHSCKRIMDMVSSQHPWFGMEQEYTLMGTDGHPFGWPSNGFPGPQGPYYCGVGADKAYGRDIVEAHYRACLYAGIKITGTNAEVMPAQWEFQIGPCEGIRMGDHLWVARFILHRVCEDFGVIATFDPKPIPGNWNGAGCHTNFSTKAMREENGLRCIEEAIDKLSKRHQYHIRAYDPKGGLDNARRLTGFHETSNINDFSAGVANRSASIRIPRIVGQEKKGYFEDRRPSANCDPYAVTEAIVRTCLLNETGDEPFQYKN

GS (rat liver), sequence (P09606 2-373 limits assumed): as above
T1 sequence (P09606 2-373 limits assumed): as above

CP(=O)(O)C(O)CC(N)C(=O)O (stereo not shown) [Gamma-hydroxy phosphinothricin]
Ki (GS (sheep brain)): 47 µM

CN1c2ccccc2C(NCCCCCCC(=O)O)c2ccc(Cl)cc2S1(=O)=O (stereo not shown) [tianeptine, 7-[(3-chloro-6,11-dihydro-6-methyl-dibenzo[c,f][1,2]thiazepin-11-yl)amino] heptanoic acid S,S-dioxide]
immobility in the forced swimming test (Wistar rats [1]; GF 0.1 mg/kg, tianeptine 0.5 mg/kg): clear decrease in immobility | immobility in the forced swimming test (Wistar rats [1]; day 19, corticosterone 35 mg/kg s.c., versus PCB and Control): comparable or lower | dose of maximum effect on seizures (Wistar rats [2]): 10 mg/kg | dose relation of the effect on seizures (Wistar rats [2]): U-shaped | resting time in the open field task (Wistar rats [3]): higher | adrenal weight ([4]; 21 days, versus PCB): higher

N[C@@]1(C(=O)O)CC[C@H](C(=O)O)C1 [1-Aminocyclopentane-cis-1,3-dicarboxylic acid]
activity at glutamate metabotropic receptors in words [5]: Group I/II glutamate metabotropic receptor agonist Olverman et al., 1983

NC(CCC(=O)O)P(=O)(O)O (stereo not shown) [4-Amino-4-phosphono butanoic acid]
Ki (GS (rat liver)): 1.3 mM

[Sr+2] [strontium]
maximum decrease of GS activity (Wistar rat brain GS; at 10^−10 M): 75%

Cc1cc(C(=O)O)ccc1[C@H](N)C(=O)O [(S)-(+)-Amino-4-carboxy-2-methylbenzeneacetic acid]
activity at glutamate metabotropic receptors in words [5]: Selective mGlu1a glutamate metabotropic receptor antagonist Clarke et al., 1997

N[C@@H](CCS(=O)(=O)CP(=O)(O)O)C(=O)O [s-Phosphonomethyl homocysteine sulfone]
Ki (GS [6]): 1.4 mM

N[C@@H](CC[S+]([O-])CP(=O)(O)O)C(=O)O (stereo partly shown) [s-Phosphonomethyl homocysteine sulfoxide]
GS inhibition in words (GS [6]): Synthetic inhibitor Logusch et al., 1988 Eisenberg et at., 2000

N[C@@H](CSS(=O)(=O)[O-])C(=O)O.[Na+] [S-Sulfo-L-cysteine sodium salt]
activity at glutamate metabotropic receptors in words [5]: mGlu1a and mGlu5a glutamate metabotropic receptor agonist Mewett et al., 1983

O=C(O)[C@@H]1C[C@@H](C(=O)O)N1 (relative stereo) [Trans-Azetidine-2,4-dicarboxylic acid]
activity at glutamate metabotropic receptors in words [5]: Group I selective glutamate metabotropic receptor agonist. (activates mGlu1 and mGlu5) Kozikowski et al., 1993

N[C@@H](C[C@H](CCCC(c1ccccc1)c1ccccc1)C(=O)O)C(=O)O [(4S)-4-(4,4-Diphenylbutyl)-L-glutamic acid]
activity at glutamate metabotropic receptors in words [5]: Selective and competitive mGlu2 glutamate metabotropic receptor antagonist Wermuth et al., 1996

C[C@@](N)(CCP(=O)(O)O)C(=O)O [2-Amino-2-methyl-4-phosphono-butyric acid]
activity at glutamate metabotropic receptors in words [5]: Selective mGlu3 glutamate metabotropic receptor antagonist Sekiyama et al., 1996

C[C@@](N)(CCS(C)(=N)=O)C(=O)O (stereo partly drawn) [Alpha-methyl methionine sulfoximine]
GS inhibition in words (GS [6]): Slightly less inhibitory synthetic MS derivative Eisenberg et al., 2000

COC(=O)CCC(N)P(=O)(O)O (stereo not shown) [Methyl 4-amino-4-phosphono butanate]
Ki (GS (rat liver)): 2.1 mM

CC1(/C=C/c2ccccc2)C=CC=CN1 (stereo not shown) [2-Methyl-2-(phenylethenyl)pyridine]
activity at glutamate metabotropic receptors in words [5]: Selective mGlu5 glutamate metabotropic receptor antagonist Varney et al., 1999

CC(N)(CCP(=O)(O)O)C(=O)O (stereo not shown) [2-Amino-2-methyl-4-phosphono butanoic acid]
Ki (GS (rat liver)): 6.3 mM

CS(=O)(=O)CC[C@H](N)C(=O)O [Methionine sulfone]
GS inhibition in words (GS [6]): Very potent ATP-dependent inhibitor of GS activity in a number of species. First discovered in nitrogen chloride treated zein. Eisenberg et al., 2000

CC(N)(CCP(C)(=O)O)C(=O)O (stereo not drawn) [Alpha-methyl phosphinothricin]
Ki (GS (sheep brain)): 125 µM

CC(=O)N[C@@H](CC(=O)O)C(=O)N[C@@H](CCC(=O)O)C(=O)O [N-Acetyl-L-aspartyl-L-glutamic acid] (Ac-Asp-Glu-OH)
activity at glutamate metabotropic receptors in words [5]: Highly selective mGlu3 glutamate metabotropic receptor agonist Morris et al., 1965

CCC(N)(CCP(C)(=O)O)C(=O)O (stereo not drawn) [Alpha-ethyl phosphinothricin]
Ki (GS (sheep brain)): 111 µM

NC(C(=O)O)c1cccc(O)c1 (racemic) [(RS)-3-Hydroxyphenylglycine]
activity at glutamate metabotropic receptors in words [5]: Glutamate metabotropic receptor agonist Thomsen and Suzdak, 1993

[Li] [lithium, Li2CO3]
maximum decrease of GS activity (Wistar rat brain GS; at 0.01 M): 40%

N[C@H](C(=O)O)[C@@H]1[C@@H](C(=O)O)C1(F)F [(2S,1′S,2′S)-2-(2′-Carboxy-3′,3′-difluorocyclopropyl)glycine]
activity at glutamate metabotropic receptors in words [5]: Glutamate metabotropic receptor agonist Shinozaki et al., 1996

COC(=O)C(CCP(=O)(O)O)C(=O)O (stereo not shown) [2-Methoxycarbonyl-4-phosphono butanoic acid]
Ki (GS (rat liver)): 8.7 mM

NNC(=O)c1ccncc1 [isoniazid, Isoniazid]
tested on GS activity: ligand or not (purified sheep brain GS): GS ligands

CP(=O)(O)C(N)CCC(=O)O (stereo not shown) [4-Amino-4-(hydroxymethylphosphinyl) butanoic acid]
Ki (GS (rat liver)): 0.8 mM

NC(C(=O)O)c1cc(O)cc(O)c1 (racemic) [(RS)-3,5-Dihydroxyphenylglycine]
activity at glutamate metabotropic receptors in words [5]: Group I selective glutamate metabotropic receptor agonist (activates mGlu1 and mGlu5) Schoepp et al., 1994

NC1(C(=O)O)CCCC(P(=O)(O)O)C1 (stereo not shown) [Cyclohexane phosphinothricin, 1-Amino-3-phosphono-cyclohexane-carboxylic acid]
Ki (GS (sheep brain)): 125 µM

Cc1ccc(O)c(/N=N/c2ccccc2)n1 [6-Methyl-2-(phenylazo)-3-pyridinol]
activity at glutamate metabotropic receptors in words [5]: Selective mGlu5 glutamate metabotropic receptor antagonist Varney et al., 1999

N[C@]1(C(=O)O)CCc2cc(C(=O)O)ccc21 (racemic) [(RS)-1-Aminoindan-1,5-dicarboxylic acid]
activity at glutamate metabotropic receptors in words [5]: mGlu1 glutamate metabotropic receptor antagonist Pellicciari et al.,1995

CC(N)(CCC(=O)O)[PH](=O)CO (stereo not shown) [4-Amino-4-(hydroxymethylphosphinyl)-4-methyl butanoic acid]
Ki (GS (rat liver); read-out: Ki): 9.5 mM

CC(CC(N)C(=O)O)P(C)(=O)O (stereo not shown) [Gamma methyl phosphinothricin]
Ki (GS (sheep brain)): 407 µM

NC(CCP(=O)(O)O)C(=O)O (stereo not shown) [2-Amino-4-phosphono butanoic acid]
Ki (GS (rat liver)): 0.88 mM

N[C@H](C(=O)O)c1cc(=O)[nH]o1 [Ibotenic acid]
activity at glutamate metabotropic receptors in words [5]: Glutamate metabotropic receptor agonist Johnston, 1968

N[C@](CC1c2ccccc2Oc2ccccc21)(C(=O)O)[C@H]1C[C@@H]1C(=O)O [(2S)-2-Amino-2-[(1S,2S)-2-carboxycycloprop-1-yl]-3-(xanth-9-yl) propanoic acid]
activity at glutamate metabotropic receptors in words [5]: Highly potent mGlu2 glutamate metabotropic receptor antagonist Ornstein et al., 1998

(2S,3S,4S)-2-Methyl-2-(carboxycyclopropyl)glycine
activity at glutamate metabotropic receptors in words [5]: mGlu2 glutamate metabotropic receptor antagonist Jane et al., 1994

C[C@]12C[C@H](O)[C@H]3[C@@H](CCC4=CC(=O)CC[C@@]43C)[C@@H]1CC[C@@H]2C(=O)CO [corticosterone]
adrenal weight ([4]; repeated administration of corticosterone): decreased the adrenal weight

C1CCc2nnnn2CC1 [PTZ, pentylenetetrazole]
GS activity in the cortex, hippocampus and thalamus (GS [7]): low
